# Test results reported in PubChem BioAssay (NCI).
# Where “and” joins values, the source holds several entries; their conditions need not be identical. Equal values may be shown once.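 48-hour exposure; five concentrations; linearly interpolated endpoints. GI50 = concentration required for 50% inhibition of growth. TGI is the concentration that stops growth completely.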
# How the values were obtained:
# Assay in all cases: growth of human tumour cells (NCI), 48 h
# [1] = system: 786-0 renal
# [2] = system: A498 renal
# [3] = system: A549 NSCLC
# [4] = system: ACHN renal
# [5] = system: BT-549 breast
# [6] = system: CAKI-1 renal
# [7] = system: CCRF-CEM leukemia
# [8] = system: COLO 205 colon
# [9] = system: DU-145 prostate
# [10] = system: EKVX NSCLC
# [11] = system: HCC-2998 colon
# [12] = system: HCT-116 colon
# [13] = system: HCT-15 colon
# [14] = system: HL-60(TB) leukemia
# [15] = system: HOP-62 NSCLC
# [16] = system: HOP-92 NSCLC
# [17] = system: HS 578T breast
# [18] = system: HT29 colon
# [19] = system: IGROV1 ovarian
# [20] = system: K-562 leukemia
# [21] = system: KM12 colon
# [22] = system: LOX IMVI melanoma
# [23] = system: M14 melanoma
# [24] = system: MALME-3M melanoma
# [25] = system: MCF7 breast
# [26] = system: MDA-MB-231 breast
# [27] = system: MDA-MB-435
# [28] = system: MOLT-4 leukemia
# [29] = system: NCI-H226 lung
# [30] = system: NCI-H23 lung
# [31] = system: NCI-H460 lung
# [32] = system: NCI-H522 lung
# [33] = system: NCI/ADR-RES ovarian
# [34] = system: OVCAR-3 ovarian
# [35] = system: OVCAR-4 ovarian
# [36] = system: OVCAR-5 ovarian
# [37] = system: OVCAR-8 ovarian
# [38] = system: PC-3 prostate
# [39] = system: RPMI-8226 leukemia
# [40] = system: RXF 393 renal
# [41] = system: SF-268 CNS
# [42] = system: SF-295 CNS
# [43] = system: SF-539 CNS
# [44] = system: SK-MEL-2 melanoma
# [45] = system: SK-MEL-28 melanoma
# [46] = system: SK-MEL-5 melanoma
# [47] = system: SK-OV-3 ovarian
# [48] = system: SN12C renal
# [49] = system: SNB-19 CNS
# [50] = system: SNB-75 CNS
# [51] = system: SR leukemia
# [52] = system: SW-620 colon
# [53] = system: T-47D breast
# [54] = system: TK-10 renal
# [55] = system: U251 CNS
# [56] = system: UACC-257 melanoma
# [57] = system: UACC-62 melanoma
# [58] = system: UO-31 renal
compound,measurement,setting,value
O=C(/C=C/c1cccnc1)NCCCCC1CCN(C(=O)c2ccccc2)CC1,GI50,[1],> 100 µM
same,TGI,[1],> 100 µM
same,GI50,[2],> 100 µM and 14.5 µM
same,TGI,[2],> 100 µM and 97.8 µM
same,GI50,[3],0.166 µM
same,TGI,[3],> 100 µM
same,GI50,[4],> 100 µM
same,TGI,[4],> 100 µM
same,GI50,[5],6.11 µM and 19.6 µM
same,TGI,[5],> 100 µM
same,GI50,[6],> 100 µM
same,TGI,[6],> 100 µM
same,GI50,[7],< 0.01 µM
same,TGI,[7],> 100 µM
same,GI50,[8],25.4 µM
same,TGI,[8],> 100 µM
same,GI50,[9],0.0234 µM and < 0.0315 µM
same,TGI,[9],> 100 µM
same,GI50,[10],> 66.9 µM
same,TGI,[10],> 100 µM
same,TGI,[11],> 100 µM
same,GI50,[12],< 0.01 µM
same,TGI,[12],> 100 µM
same,GI50,[13],< 0.01 µM
same,TGI,[13],> 100 µM
same,GI50,[14],> 65.6 µM
same,TGI,[14],> 100 µM
same,GI50,[15],> 100 µM
same,TGI,[15],> 100 µM
same,GI50,[16],26.8 µM and > 32 µM
same,TGI,[16],> 100 µM
same,GI50,[17],> 100 µM
same,TGI,[17],> 100 µM
same,GI50,[18],< 0.01 µM
same,TGI,[18],> 100 µM
same,GI50,[19],> 47.3 µM
same,TGI,[19],> 100 µM
same,GI50,[20],< 0.01 µM
same,TGI,[20],> 100 µM
same,GI50,[21],0.0145 µM and < 0.0118 µM
same,TGI,[21],> 100 µM
same,GI50,[22],> 100 µM
same,TGI,[22],> 100 µM
same,GI50,[23],< 0.01 µM
same,TGI,[23],> 100 µM
same,GI50,[24],> 86.5 µM
same,TGI,[24],> 100 µM
same,TGI,[25],> 100 µM
same,GI50,[26],> 100 µM
same,TGI,[26],> 100 µM
same,GI50,[27],< 0.01 µM
same,TGI,[27],> 100 µM
same,GI50,[28],31.1 µM and 21.7 µM
same,TGI,[28],> 100 µM
same,GI50,[29],> 100 µM and 62.3 µM
same,TGI,[29],> 100 µM
same,GI50,[30],> 100 µM
same,TGI,[30],> 100 µM
same,GI50,[31],0.274 µM and 0.0767 µM
same,TGI,[31],> 100 µM
same,GI50,[32],< 0.01 µM
same,TGI,[32],> 100 µM
same,GI50,[33],< 0.0135 µM
same,TGI,[33],> 100 µM
same,GI50,[34],48.5 µM and 6.22 µM
same,TGI,[34],> 100 µM
same,GI50,[35],> 66 µM and 26.2 µM
same,TGI,[35],> 100 µM
same,GI50,[36],27.7 µM
same,TGI,[36],> 100 µM
same,GI50,[37],< 0.01 µM
same,TGI,[37],> 100 µM
same,GI50,[38],< 0.01 µM
same,TGI,[38],> 100 µM
same,TGI,[39],> 100 µM
same,GI50,[40],> 100 µM
same,TGI,[40],> 100 µM
same,GI50,[41],> 100 µM
same,TGI,[41],> 100 µM
same,GI50,[42],< 0.0256 µM
same,TGI,[42],> 100 µM
same,GI50,[43],< 0.01 µM
same,TGI,[43],> 100 µM
same,GI50,[44],> 100 µM
same,TGI,[44],> 100 µM
same,GI50,[45],> 100 µM
same,TGI,[45],> 100 µM
same,GI50,[46],35.3 µM and 21.8 µM
same,TGI,[46],> 100 µM
same,GI50,[47],> 100 µM
same,TGI,[47],> 100 µM
same,GI50,[48],< 0.01 µM
same,TGI,[48],> 100 µM
same,GI50,[49],0.615 µM and 4.43 µM
same,TGI,[49],> 100 µM
same,GI50,[50],> 73.6 µM
same,TGI,[50],> 100 µM
same,TGI,[51],> 100 µM
same,GI50,[52],< 0.01 µM
same,TGI,[52],> 100 µM
same,GI50,[53],1.93 µM
same,TGI,[53],> 90.3 µM
same,GI50,[54],> 100 µM
same,TGI,[54],> 100 µM
same,TGI,[55],> 100 µM
same,GI50,[56],> 100 µM
same,TGI,[56],> 100 µM
same,GI50,[57],70.3 µM and > 58 µM
same,TGI,[57],> 100 µM
same,GI50,[58],> 100 µM
same,TGI,[58],> 100 µM
